Like-named read-outs stand apart in the source and are kept apart here.
Columns and labels:
[1] = tested on: Vibrio harveyi BB7; assay: Vibrio harveyi antimutagenicity assay against NQNO, BB7; type: cell-based; conditions: for % inhibition of NQNO mutagenicity / Number of revertants per plate, Mean ± SD: BB7, compound 40 ng/mL + NQNO 40 ng/mL; for Number of revertants per plate, Mean ± SD: antimutagenicity, NQNO line = NQNO as a single compound; for chemopreventive (antimutagenic) effect, class: wild BB7 strain, against NQNO
Text: (§1) Four Vibrio harveyi strains were used in this study: a wild-type BB7 (naturally found in the Baltic Sea) and three genetically modified strains, namely BB7M (obtained by the introduction of pAB1273 plasmid containing the genes mucA and mucB to enhance the error-prone DNA repair), BB7X (hypersensitive to UV radiation after genetic modification with Tn5TpMCS), and BB7XM (containing the two abovementioned modifications). These strains were kindly provided by Prof. G. Węgrzyn (Department of Molecular Biology, University of Gdańsk, Poland).
(§2) It causes point mutations at the genome as it induces G:C → A:T transitions in Vibrio harveyi strains and in other bacteria such as Escherichia coli and S. typhimurium. […] Next, its working solution was prepared in sterile water, being 40 ng/mL its final concentration.
(§3) Procedure followed in the V. harveyi antimutagenicity assay was similar to the mutagenicity method described before. […] The results were expressed as the inhibition percentage of mutagenic effect, which was calculated with the formula: 100 − [(R 1/R 2) × 100], where R 1 is the number of revertants per plate in the presence of both mutagen and tested substance, and R 2 is the number of revertants per plate in the presence of mutagen. […] S. typhimurium antimutagenicity assay was based on similar assumptions as the V. harveyi antimutagenicity test. In this case, the chemopreventive activity was determined at two concentrations of a tested compounds and a standard mutagen, i.e., 40 and 500 ng/mL.

[2] = tested on: Salmonella typhimurium TA100; assay: S. typhimurium antimutagenicity assay against NQNO; type: cell-based; conditions: for Number of revertants per plate, Mean ± SD: antimutagenicity, NQNO line = NQNO as a single compound
Text: In the Ames test, Salmonella typhimurium TA100 strain was used. This strain has a base-pair substitution that can be reverted by mutations at GC pairs. In addition, it contains mutations at uvrB-bio and rfa genes to eliminate excision repair mechanisms and to make the bacteria more permeable to chemicals, respectively. Finally, TA100 also includes pKM101 plasmid, which enhances both chemical and UV-induced mutagenesis via an increase in the error-prone recombinational DNA repair pathway. TA100 strain of S. typhimurium was provided by Dr. T. Nohmi (Division of Genetics and Mutagenesis, National Institute of Hygienic Sciences, Tokyo, Japan). V. harveyi and S. typhimurium bacterial cultures were maintained at 30 and 37 °C, respectively.
as §2, §3

[3] = tested on: Vibrio harveyi BB7XM; assay: Vibrio harveyi mutagenicity assay, BB7XM; type: cell-based; conditions: 40 ng/mL; for MI (mutagenicity index): mutagenic if MI above 2.0; for Number of revertants per plate, Mean ± SD: mutagenicity
Description: (§4) From them, 0.2 mM working solutions were prepared by dilution with water. […] Working solutions were prepared by 1:100 dilution of stock solution in water, and final compound concentration assayed was 40 ng/mL.
as §1, §2
(§5) To perform the V. harveyi mutagenicity test, 10 μL of a working solution of the tested compound (100 μg/mL) were added to V. harveyi bacterial culture (OD600 = 0.1) in NaCl-containing BOSS liquid medium, being 40 ng/mL the final concentration of the tested compound. […] Then, an inoculum containing 5 × 10^6 cells was added to solid BOSS agar plate supplemented with neomycin sulfate at a final concentration of 100 μg/mL. Samples were left incubating 48 h at 30 °C, and revertant colonies were counted manually.

[4] = tested on: Cunninghamella strains; assay: Cunninghamella biotransformation assay, three strains together and blank without fungus; type: in vitro ADME; conditions: blank: control in the absence of fungus, 7-day incubation
Description: (§6) Three different strains of Cunninghamella were used: Cunninghamella echinulata NRRL 1384, Cunninghamella blakesleeana 1908 DMS, and Cunninghamella elegans 1906 DMS. The first was provided by Dr. A.J. Carnell (University of Liverpool, UK), whereas the two remaining were purchased from Deutsche Sammlung von Mikroorganismen und Zellkulturen GmbH (DMSZ, Braunschweig, Germany).
(§7) Cunninghamella strains were cultivated on solid potato dextrose agar (PDA) plates at 28 °C. After 4 days, a liquid fermentation basal medium was prepared by the addition of 6 g of D-glucose, 1.5 g of NaCl, 1.5 g of yeast extract from Saccharomyces cerevisiae, and 1.5 g of K2HPO4 to 300 mL of distilled water. Aliquots of 24.5 mL of medium were inoculated with 300 μL of suspension of fungal spores obtained after wetting colonies in PDA. The fungi were incubated with shaking until the formation of spherical clumps.
(§8) Compounds 2–4 were evaluated in this experiment. Once microorganisms formed spherical clumps in the preliminary incubation, the corresponding tested compound was added to the broth and the mixture was incubated for 7 days. Two control experiments were also performed, in the absence of compound and fungus, respectively. Biotransformation progress was monitored by TLC and by liquid chromatography electrospray ionization-tandem mass spectrometry (LC-MS/MS). Monitoring was performed at four different incubation times: 30 min, 3 days, 5 days, and 7 days.
(§9) To analyze metabolites in LC-MS/MS, an aliquot of 500 μL of filtered sample was taken and extracted with 500 μL of dichloromethane. The organic fraction was dried with sodium sulfate, filtered, and evaporated. The obtained residue was analyzed in LC-MS/MS. At the end of experiment, all the remaining medium was extracted with 25 mL of dichloromethane after separating the fungal clumps by filtration over cellulose filters.
Agilent 1100 HPLC system (Agilent Technologies, Waldbronn, Germany) equipped with a Xbridge™ C18 analytical column (2.1 × 30 mm, […]; Waters, Dublin, Ireland) was used in the chromatographic separation of LC-MS/MS analysis. […]

[5] = tested on: Vibrio harveyi BB7X; conditions: 40 ng/mL; for MI (mutagenicity index): mutagenic if MI above 2.0; for Number of revertants per plate, Mean ± SD: mutagenicity
Description: as §4, §1, §2, §5

[6] = tested on: Vibrio harveyi BB7; conditions: BB7, 40 ng/mL; for MI (mutagenicity index): mutagenic if MI above 2.0; for Number of revertants per plate, Mean ± SD: mutagenicity
Description: as §4, §1, §2, §5

[7] = tested on: Vibrio harveyi BB7M; conditions: 40 ng/mL; for Number of revertants per plate, Mean ± SD: mutagenicity
Description: as §4, §1, §2, §5

[8] = tested on: Cunninghamella blakesleeana 1908 DMS; assay: Cunninghamella biotransformation assay, C. blakesleeana; type: in vitro ADME; conditions: 7-day incubation; for % of compound/metabolite in C. blakesleeana: 0.5 mg/mL, LC-MS/MS; for % of tested (parental) compound metabolized at the end of experiment: C. blakesleeana
Description: as §6, §7, §8, §9
(§10) Agilent 1100 HPLC system (Agilent Technologies, Waldbronn, Germany) equipped with a Xbridge™ C18 analytical column (2.1 × 30 mm, […]; Waters, Dublin, Ireland) was used in the chromatographic separation of LC-MS/MS analysis. An elution gradient of acetonitrile and water, with 0.1% of formic acid, was used as a mobile phase. MS spectra were taken at Applied Biosystems MDS Sciex API 200 triple quadrupole mass analyzer (Concord, Ontario, Canada) with an electrospray ionization (ESI) interface between HPLC and MS.

[9] = tested on: Cunninghamella elegans 1906 DMS; assay: Cunninghamella biotransformation assay, C. elegans; type: in vitro ADME; conditions: 7-day incubation; for % of compound/metabolite in C. elegans: 0.5 mg/mL, LC-MS/MS; for % of tested (parental) compound metabolized at the end of experiment: C. elegans
Description: as §6, §7, §8, §9, §10

[10] = tested on: Vibrio harveyi BB7X; assay: Vibrio harveyi antimutagenicity assay against NQNO, BB7X; type: cell-based; conditions: compound 40 ng/mL + NQNO 40 ng/mL; for Number of revertants per plate, Mean ± SD: antimutagenicity, NQNO line = NQNO as a single compound
Text: as §1, §2, §3

[11] = tested on: Vibrio harveyi BB7M; assay: Vibrio harveyi antimutagenicity assay against NQNO, BB7M; type: cell-based; conditions: compound 40 ng/mL + NQNO 40 ng/mL; for Number of revertants per plate, Mean ± SD: antimutagenicity, NQNO line = NQNO as a single compound
Text: as §1, §2, §3

[12] = TA100, compound and NQNO 40 ng/mL
[13] = TA100, compound and NQNO 500 ng/mL

In the case of `COc1nc2c(c(=O)n(C)c(=O)n2C)n1CCCC(=O)NCc1ccccc1` [Compound 3, N-benzyl-4-(8-methoxy-1,3-dimethyl-2,6-dioxo-purin-7-yl)butanamide], the “% inhibition of NQNO mutagenicity” value [1] is reported as 29%, the “Number of revertants per plate, Mean ± SD” value [1] is reported as 38 ± 9 and the “chemopreventive (antimutagenic) effect, class” value [1] is reported as “moderate or a close to moderate”. For the same molecule, the “% inhibition of NQNO mutagenicity” value [2, 12] was 96%, the “% inhibition of NQNO mutagenicity” value [2, 13] was 92% and the “Number of revertants per plate, Mean ± SD” value [2, 12] was 4 ± 2. For the same molecule, the “Number of revertants per plate, Mean ± SD” value [2, 13] was 8 ± 3, the “MI (mutagenicity index)” value [3] was 1.1 and the “Number of revertants per plate, Mean ± SD” value [3] was 35 ± 7. For the same molecule, the “% of compound/metabolite in blank” value [4] was 100.0%, the “MI (mutagenicity index)” value [5] was 1.6 and the “Number of revertants per plate, Mean ± SD” value [5] was 35 ± 4. The “MI (mutagenicity index)” value [6] was 1.4, the “Number of revertants per plate, Mean ± SD” value [6] was 18 ± 6 and the “MI (mutagenicity index)” value ([7]; mutagenic if MI above 2.0) was 1.3. For the same molecule, the “Number of revertants per plate, Mean ± SD” value [7] was 35 ± 5, the “% of compound/metabolite in C. blakesleeana” value [8] was 95.4% and the “% of tested (parental) compound metabolized at the end of experiment” value (“% of tested” below) [8] was 4.6%. The “% of compound/metabolite in C. elegans” value [9] was 99.4%, the “% of tested” value [9] was 0.6% and the “Number of revertants per plate, Mean ± SD” value [10] was 45 ± 9. The “% inhibition of NQNO mutagenicity” value [10] was 58%, the “Number of revertants per plate, Mean ± SD” value [11] was 48 ± 8 and the “% inhibition of NQNO mutagenicity” value [11] was 50%.
With `COc1nc2c(c(=O)n(C)c(=O)n2C)n1CCCC(=O)N1CCN(c2ccccc2)CC1` [Compound 4, 8-methoxy-1,3-dimethyl-7-[4-oxo-4-(4-phenylpiperazin-1-yl)butyl]purine-2,6-dione] the “% inhibition of NQNO mutagenicity” value [1] was 53%, the “Number of revertants per plate, Mean ± SD” value [1] was 26 ± 6 and the “chemopreventive (antimutagenic) effect, class” value [1] was “strong (higher than 40%)”. For the same molecule, the “% inhibition of NQNO mutagenicity” value [2, 12] was 93%, the “% inhibition of NQNO mutagenicity” value [2, 13] was 88% and the “Number of revertants per plate, Mean ± SD” value [2, 12] was 6 ± 2. The “Number of revertants per plate, Mean ± SD” value [2, 13] was 11 ± 3, the “MI (mutagenicity index)” value [3] was 1.2 and the “Number of revertants per plate, Mean ± SD” value [3] was 41 ± 9. For the same molecule, the “% of compound/metabolite in blank” value [4] was 100.0%, the “MI (mutagenicity index)” value [5] was 1.2 and the “Number of revertants per plate, Mean ± SD” value [5] was 27 ± 7. The “MI (mutagenicity index)” value [6] was 0.8, the “Number of revertants per plate, Mean ± SD” value [6] was 10 ± 4 and the “Number of revertants per plate, Mean ± SD” value [7] was 42 ± 11. The “% of compound/metabolite in C. blakesleeana” value [8] was 33.3%, the “% of tested” value [8] was 66.6% and the “% of compound/metabolite in C. elegans” value [9] was 47.0%. For the same molecule, the “% of tested” value [9] was 53.0%, the “Number of revertants per plate, Mean ± SD” value [10] was 47 ± 10 and the “% inhibition of NQNO mutagenicity” value [10] was 56%. For the same molecule, the “Number of revertants per plate, Mean ± SD” value [11] was 50 ± 9 and the “% inhibition of NQNO mutagenicity” value [11] was 49%.
